{"source": "patent US5168102A", "about": "“Endocrine manipulation to improve body composition of poultry” (priority 1990, dated 1992)", "key": {"receptor": {"system": "receptor", "details": "cited from earlier work"}, "[1]": {"assay": "Example 2: plasma hormone concentrations", "type": "in vivo, broiler cockerels (Ross X Arbor Acre)", "details": "vs CF+BI or CF+GH treatment", "experimental": "Forty-eight 3-week-old broiler cockerels (Ross X Arbor Acre) were randomly divided into four treatment groups that contained three pens of four birds. The birds were housed in a controlled-environment room under a 20 hour light/4 hour dark cycle with feed and water provided ad libitum.\nThe preparation of ncGH used in this study was from the same lot used in Example 1.\nBody weights and feed consumption was determined at weekly intervals although the ADG, ADFC and FTG ratio was determined over the 21 day period. […] At the conclusion of the study (6 weeks-of-age), birds were killed and the abdominal fat removed and weighed. The liver and abdominal fat were returned to the carcass which was frozen for proximate analysis as described in […]"}, "[2]": {"details": "supplemented diets; cited from earlier work"}, "[3]": {"details": "0.25 to 1 ppm in feed throughout entire growth cycle; cited from earlier work"}, "[4]": {"assay": "Example 3: muscle protein turnover (14C-L-tyrosine infusion)", "type": "in vivo, broiler cockerels", "experimental": "At week no. 7 (49 days-of-age), one-half of the birds (8 birds/treatment) were killed for measurement of the abdominal fat pad and liver weights. The muscles were removed, weighed, frozen in liquid N2 and stored at -20° C. until analyzed. At 51 days-of-age, groups of 4 birds per treatment were given a subcutaneous infusion of 4 μCi/Kg of 14C-L-tyrosine emulsified in sesame seed oil and immediately placed in metabolism cages. The expired CO2 was trapped in 15 ml of scrubbing solution (1:2 ethanolamine/methyl cellusolve) and the tubes were changed every 15 minutes for 90 minutes. At 90 minutes, the birds were removed from the metabolism cages and blood was obtained via cardiac puncture. Birds were then sacrificed by cervical dislocation and the muscles were removed, weighed, frozen in liquid N2 and stored at -20° C. until analyzed. Radioactivity in the samples containing trapped CO2 was counted for 10 minutes using a liquid scintillation spectrophotometer. At 54 days-of-age, groups of 4 birds per treatment were killed, the muscles were dissected, weighed, and frozen until analyzed.\nThe right breast muscle, i.e. BM (Pectoralis major) and right leg muscles, i.e. LM (gastrocnemius and peroneus longus) were dissected out from the birds, weighed and immediately frozen in liquid nitrogen and stored at -20° C. until analyzed for tyrosine content as specific radioactivity of tyrosine. All muscle tissues were analyzed for protein content; only tissues from isotope experiments were analyzed for tyrosine content as specific radioactivity of tyrosine.\nFAR of breast muscle and leg muscles were estimated from regression of total muscle protein on age. Total muscle protein was determined by multiplying the muscle weight by protein content. Protein content was determined by the Biuret method. The slope obtained by linear regression was the absolute rate of protein accretion (g/d). The FAR (%/d) was calculated by dividing the absolute accretion rate by the average muscle protein at 51 days-of-age. The FSR (ks) was calculated according to the equation described by Garlick et al., Biochem. J. 136:935 (1973). Protein-bound tyrosine in muscle tissue was separated from free tyrosine according to the procedures of Laurent et al. Biochem. J. 176:419 (1978) with some modification. Approximately 1 g of muscle tissue was homogenized with 5 ml cold distilled water and washed with 15 ml of cold 5% trichloroacetic acid (TCA). The homogenate was then centrifuged for 15 min at 4000×g. The supernatant containing the free tyrosine was poured off and the TCA was extracted with 15 ml of diethyl ether. The supernatant was concentrated to dryness. The dried sample was dissolved in 5 ml of distilled water and stored at 4° C. until analyzed for tyrosine content and the specific radioactivity of tyrosine.\nThe pellet was extracted with 15 ml of hot 5% TCA, 15 ml of 3:1 ethanol/diethyl ether (v/v) and 20 ml of diethyl ether. The washed pellet was then placed in a 25×150 mm test tube with screw cap and hydrolyzed in 15 ml of 6N hydrochloric acid (HCl) for 16 hours at 125° C. The hydrolysate was concentrated to dryness. The dried sample was dissolved in 5 ml of distilled water and stored at 4° C. until analyzed for tyrosine content and specific radioactivity of tyrosine.\nTyrosine content in free tyrosine (supernatant) and the protein-bound fraction (hydrolysate) was analyzed according to the method of Udenfriend et al, J. Biol. Sci. 196:227 (1952).\nThe specific radioactivity of tyrosine in the protein-bound fraction (hydrolysate) and in the free tyrosine (supernatant) was analyzed using the method described by Schaefer et al, Can. J. Anim. Sci. 62:1223 (1982). One ml of the samples were added into 10 ml of aquasol and counted for 10 minutes in a liquid scintillation spectrophotometer."}}, "note": "Values joined by “and” are separate entries in the source; they are usually repeats but may differ in a detail not shown here. Equal values may be shown once.", "data": [{"smiles": "N[C@@H](Cc1cc(I)c(Oc2ccc(O)c(I)c2)c(I)c1)C(=O)O", "note": "[T3, 3,3',5-triiodo-L-thyronine]", "values": [{"measurement": "metabolic activity of thyroid hormones", "setting": "receptor", "result": "most active compounds of formula I"}, {"measurement": "average plasma T3 level, fold higher", "setting": "[1]", "result": 2.3, "unit": "times"}, {"measurement": "depressed growth rate in dwarf strains", "setting": "[2]", "result": "restored to normal"}, {"measurement": "body weight gain, feed efficiency / growth performance", "setting": "[3]", "result": "reduced body weight gain and feed efficiency"}, {"measurement": "overall protein turnover rate of breast muscle", "setting": "[4]; 0.25 ppm", "result": "did not differ from that of control birds"}, {"measurement": "protein accretion in breast and leg muscle, increase", "setting": "[4]; 0.25 ppm", "result": "45-88%"}, {"measurement": "FAR, Leg muscles", "setting": "[4]; 0.25 ppm of feed", "result": 9.3, "unit": "%/d"}, {"measurement": "FAR, Pectoralis major (breast muscle)", "setting": "[4]; 0.25 ppm of feed", "result": 4.9, "unit": "%/d"}, {"measurement": "FRD (fractional degradation rate), Leg muscles", "setting": "[4]; 0.25 ppm of feed", "result": 13.6, "unit": "%/d"}, {"measurement": "FRD (fractional degradation rate), Pectoralis major", "setting": "[4]; 0.25 ppm of feed", "result": 12.3, "unit": "%/d"}, {"measurement": "FSR, Leg muscles", "setting": "[4]; 0.25 ppm of feed", "result": "22.0 ± 2.1", "unit": "%/d"}, {"measurement": "FSR, Pectoralis major", "setting": "[4]; 0.25 ppm of feed", "result": "17.2 ± 1.3", "unit": "%/d"}, {"measurement": "FAR of leg muscle, increase", "setting": "[4]; 0.25 ppm, vs control group", "result": 45, "unit": "%"}, {"measurement": "FAR of pectoralis major (breast muscle), increase", "setting": "[4]; 0.25 ppm, vs control group", "result": 88, "unit": "%"}, {"measurement": "effect on protein synthesis rate in breast muscle", "setting": "[4]; 0.25 to 1 ppm", "result": "only a slight effect upon protein synthesis rate in breast muscle"}, {"measurement": "FAR, Leg muscles", "setting": "[4]; 1.0 ppm of feed", "result": -2.0, "unit": "%/d"}, {"measurement": "FAR, Pectoralis major (breast muscle)", "setting": "[4]; 1.0 ppm of feed", "result": -4.5, "unit": "%/d"}, {"measurement": "FRD (fractional degradation rate), Leg muscles", "setting": "[4]; 1.0 ppm of feed", "result": 24.1, "unit": "%/d"}, {"measurement": "FRD (fractional degradation rate), Pectoralis major", "setting": "[4]; 1.0 ppm of feed", "result": 22.7, "unit": "%/d"}, {"measurement": "FSR, Leg muscles", "setting": "[4]; 1.0 ppm of feed", "result": "22.1 ± 1.9", "unit": "%/d"}, {"measurement": "FSR, Pectoralis major", "setting": "[4]; 1.0 ppm of feed", "result": "18.2 ± 1.7", "unit": "%/d"}, {"measurement": "fractional degradation rate of breast muscle, increase", "setting": "[4]; 4 ppm", "result": 116, "unit": "%"}, {"measurement": "FSR of protein in breast muscle, increase", "setting": "[4]; 4.0 ppm (p<0.05)", "result": "55.7% and 56%"}, {"measurement": "FAR, Leg muscles", "setting": "[4]; 4.0 ppm of feed", "result": 5.0, "unit": "%/d"}, {"measurement": "FAR, Pectoralis major (breast muscle)", "setting": "[4]; 4.0 ppm of feed", "result": -3.8, "unit": "%/d"}, {"measurement": "FRD (fractional degradation rate), Leg muscles", "setting": "[4]; 4.0 ppm of feed", "result": 18.4, "unit": "%/d"}, {"measurement": "FRD (fractional degradation rate), Pectoralis major", "setting": "[4]; 4.0 ppm of feed", "result": 28.1, "unit": "%/d"}, {"measurement": "FSR, Leg muscles", "setting": "[4]; 4.0 ppm of feed", "result": "23.4 ± 0.8", "unit": "%/d"}, {"measurement": "FSR, Pectoralis major", "setting": "[4]; 4.0 ppm of feed", "result": "24.3 ± 1.4", "unit": "%/d"}, {"measurement": "accretion of certain muscle protein (particularly breast muscle)", "setting": "[4]; plasma thyroid hormone bioactivity 360-1200% of normal", "result": "decreased"}]}]}
